Here are results for one molecule from paper doi:10.1101/2023.09.01.555951v1 (biorxiv, 2023).

For experiment [1], the target named is T1, OpuAC (isolated SBD of OpuA) (Lactococcus lactis, UniProt Q7DAU8, K521C/S319C).
T1 sequence (Q7DAU8 319-573 S319C/K521C): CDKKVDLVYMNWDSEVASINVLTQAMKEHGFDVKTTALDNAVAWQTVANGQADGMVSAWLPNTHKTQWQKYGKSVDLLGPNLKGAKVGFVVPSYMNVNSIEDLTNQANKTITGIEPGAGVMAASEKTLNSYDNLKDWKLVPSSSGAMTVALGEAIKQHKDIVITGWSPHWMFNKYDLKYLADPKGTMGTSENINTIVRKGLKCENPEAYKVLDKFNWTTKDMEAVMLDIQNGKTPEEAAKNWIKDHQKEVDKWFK
As to the kind of experiment: intrinsic tryptophan fluorescence titration. In kind it is binding.

Experiment [2] concerns the target T2, OpuAC (isolated SBD of OpuA) (Lactococcus lactis, UniProt Q7DAU8).
T2 sequence (Q7DAU8 319-573): T1 sequence (Q7DAU8 319-573 S319C/K521C) with C1S, C203K
In words: intrinsic tryptophan fluorescence titration. In kind it is binding.

Each structure is given as a SMILES string. Where a chain is given by its changes, count along the chain named.

The term Kd denotes the constant that tells how readily two partners part at equilibrium.

For `C[N+](C)(C)CC(=O)[O-]` [glycine betaine], the values for the Kd in experiment [1] and in experiment [2] were 4.3 ± 0.4 µM and 4.4 ± 0.1 µM, respectively.
